In ChEMBL document CHEMBL3044921, “Synthesis, characterization, and SAR studies of new (1H-indol-3-yl)alkyl-3-(1H-indol-3-yl)propanamide derivatives as possible antimicrobial and antitubercular agents” (2013):
≈ marks a conversion by molar mass, not a printed value.

Columns and labels:
Streptococcus pyogenes [1] = test: Antibacterial activity against Streptococcus pyogenes assessed as growth inhibition after 16 to 18 hr by serial plate dilution method; assay type: functional
Staphylococcus aureus [2] = test: Antibacterial activity against Staphylococcus aureus ATCC 25923 assessed as growth inhibition after 16 to 18 hr by serial plate dilution method; assay type: functional
Aspergillus fumigatus [3] = test: Antifungal activity against Aspergillus fumigatus NCIM 902 assessed as growth inhibition at […] to […] ug/ml after 3 to 4 days by agar well diffusion method; assay type: functional
[4] = system: Mycobacterium tuberculosis; test: Antitubercular activity against Mycobacterium tuberculosis H37Rv ATCC 27294 assessed as growth inhibition at 1 to 100 ug/mL after 7 days by resazurin reduction test; assay type: functional; details: for MIC: Mycobacterium tuberculosis, H37Rv ATCC 27294, 168 h
Escherichia coli [5] = assay type: functional, ATCC 24922
Description: Antibacterial activity against Escherichia coli ATCC 24922 assessed as growth inhibition at 1.56 to 25 ug/ml after 3 to 4 days by agar well diffusion method

Staphylococcus aureus [6] = assay type: functional, ATCC 25923
Description: Antibacterial activity against Staphylococcus aureus ATCC 25923 assessed as growth inhibition at 1.56 to 25 ug/ml after 3 to 4 days by agar well diffusion method

Aspergillus flavus [7] = test: Antifungal activity against Aspergillus flavus NCIM 524 assessed as growth inhibition after 3 to 4 days by serial plate dilution method; assay type: functional
Streptococcus pyogenes [8] = assay type: functional
Description: Antibacterial activity against Streptococcus pyogenes assessed as growth inhibition at 1.56 to 25 ug/ml after 3 to 4 days by agar well diffusion method

Talaromyces marneffei [9] = test: Antifungal activity against Talaromyces marneffei assessed as growth inhibition after 3 to 4 days by serial plate dilution method; assay type: functional
Klebsiella pneumoniae [10] = test: Antibacterial activity against Klebsiella pneumoniae assessed as growth inhibition after 16 to 18 hr by serial plate dilution method; assay type: functional
[11] = system: Mycobacterium tuberculosis; test: Antitubercular activity against Mycobacterium tuberculosis H37Rv ATCC 27294 assessed as growth inhibition at 0.3125 to 5 ug/mL after 7 days by resazurin reduction test; assay type: functional; details: H37Rv ATCC 27294, 168 h
Escherichia coli [12] = test: Antibacterial activity against Escherichia coli […] assessed as growth inhibition after 16 to 18 hr by serial plate dilution method; assay type: functional
[13] = system: Mycolicibacterium smegmatis; test: Antitubercular activity against Mycobacterium smegmatis ATCC 19420 assessed as growth inhibition at 1 to 100 ug/mL after 7 days by resazurin reduction test; assay type: functional; details: ATCC 19420, 168 h
[14] = system: Trichophyton mentagrophytes; test: Antifungal activity against Trichophyton mentagrophytes assessed as growth inhibition at […] to […] ug/ml after 3 to 4 days by agar well diffusion method; assay type: functional
[15] = system: Trichophyton mentagrophytes; test: Antifungal activity against Trichophyton mentagrophytes assessed as growth inhibition after 3 to 4 days by serial plate dilution method; assay type: functional
Candida albicans [16] = test: Antifungal activity against Candida albicans assessed as growth inhibition at […] to […] ug/ml after 3 to 4 days by agar well diffusion method; assay type: functional
[17] = system: Mycolicibacterium smegmatis; test: Antitubercular activity against Mycobacterium smegmatis ATCC 19420 assessed as growth inhibition at 0.3125 to 5 ug/mL after 7 days by resazurin reduction test; assay type: functional; details: ATCC 19420, 168 h
[18] = system: Mycolicibacterium fortuitum; test: Antitubercular activity against Mycobacterium fortuitum ATCC 19542 assessed as growth inhibition at 1 to 100 ug/mL after 7 days by resazurin reduction test; assay type: functional; details: ATCC 19542, 168 h
Pseudomonas aeruginosa [19] = assay type: functional, ATCC 27853
Description: Antibacterial activity against Pseudomonas aeruginosa ATCC 27853 assessed as growth inhibition at 1.56 to 25 ug/ml after 3 to 4 days by agar well diffusion method

Candida albicans [20] = test: Antifungal activity against Candida albicans assessed as growth inhibition after 3 to 4 days by serial plate dilution method; assay type: functional
Klebsiella pneumoniae [21] = assay type: functional
Description: Antibacterial activity against Klebsiella pneumoniae assessed as growth inhibition at 1.56 to 25 ug/ml after 3 to 4 days by agar well diffusion method

Pseudomonas aeruginosa [22] = test: Antibacterial activity against Pseudomonas aeruginosa ATCC 27853 assessed as growth inhibition after 16 to 18 hr by serial plate dilution method; assay type: functional
Talaromyces marneffei [23] = test: Antifungal activity against Talaromyces marneffei assessed as growth inhibition at […] to […] ug/ml after 3 to 4 days by agar well diffusion method; assay type: functional
Aspergillus fumigatus [24] = test: Antifungal activity against Aspergillus fumigatus NCIM 902 assessed as growth inhibition after 3 to 4 days by serial plate dilution method; assay type: functional
Aspergillus flavus [25] = test: Antifungal activity against Aspergillus flavus NCIM 524 assessed as growth inhibition at […] to […] ug/ml after 3 to 4 days by agar well diffusion method; assay type: functional
[26] = system: Mycolicibacterium fortuitum; test: Antitubercular activity against Mycobacterium fortuitum ATCC 19542 assessed as growth inhibition at 0.3125 to 5 ug/mL after 7 days by resazurin reduction test; assay type: functional; details: ATCC 19542, 168 h

SMILES | MIC (Streptococcus pyogenes [1]) | MIC (Staphylococcus aureus [2]) | diameter of the inhibition zone (DIZ) (Aspergillus fumigatus [3]) | growth inhibition (GI) [4] | MIC [4] | diameter of the inhibition zone (DIZ) (Escherichia coli [5]) | diameter of the inhibition zone (DIZ) (Staphylococcus aureus [6]) | MIC (Aspergillus flavus [7]) | diameter of the inhibition zone (DIZ) (Streptococcus pyogenes [8]) | MIC (Talaromyces marneffei [9]) | MIC (Klebsiella pneumoniae [10]) | MIC [11] | MIC (Escherichia coli [12]) | MIC [13] | diameter of the inhibition zone (DIZ) [14] | MIC [15] | diameter of the inhibition zone (DIZ) (Candida albicans [16]) | MIC [17] | MIC [18] | diameter of the inhibition zone (DIZ) (Pseudomonas aeruginosa [19]) | also measured
Cn1cc(CCCNC(=O)CCc2cn(C)c3ccc(Cl)cc23)c2cc(Cl)ccc21 | 25 µg/mL (≈ 56.5 µM) | 12.5 µg/mL (≈ 28.3 µM) | 11 mm | <90% | 10 µg/mL (≈ 22.6 µM) | <10 mm | 11 mm | 12.5 µg/mL (≈ 28.3 µM) | <10 mm | 25 µg/mL (≈ 56.5 µM) | 25 µg/mL (≈ 56.5 µM) | 5 µg/mL (≈ 11.3 µM) | 25 µg/mL (≈ 56.5 µM) | 10 µg/mL (≈ 22.6 µM) | 11 mm | 12.5 µg/mL (≈ 28.3 µM) | <10 mm | 10 µg/mL (≈ 22.6 µM) | > 100 µg/mL | <10 mm | MIC (Candida albicans [20]): 25 µg/mL (≈ 56.5 µM); diameter of the inhibition zone (DIZ) (Klebsiella pneumoniae [21]): <10 mm; MIC (Pseudomonas aeruginosa [22]): 25 µg/mL (≈ 56.5 µM); diameter of the inhibition zone (DIZ) (Talaromyces marneffei [23]): <10 mm; MIC (Aspergillus fumigatus [24]): 12.5 µg/mL (≈ 28.3 µM); diameter of the inhibition zone (DIZ) (Aspergillus flavus [25]): 11 mm
Cc1c(CCCNC(=O)CCc2c[nH]c3ccc(Cl)cc23)c2cc(OC(F)(F)F)ccc2n1C | 6.25 µg/mL (≈ 12.7 µM) | 12.5 µg/mL (≈ 25.4 µM) | <10 mm | 90% | 10 µg/mL (≈ 20.3 µM) | 11 mm | 11 mm | 6.25 µg/mL (≈ 12.7 µM) | 16 mm | 6.25 µg/mL (≈ 12.7 µM) | 12.5 µg/mL (≈ 25.4 µM) | 10 µg/mL (≈ 20.3 µM) | 12.5 µg/mL (≈ 25.4 µM) | > 100 µg/mL | <10 mm | 25 µg/mL (≈ 50.8 µM) | 11 mm |  | 10 µg/mL (≈ 20.3 µM) | <10 mm | MIC [26]: 10 µg/mL (≈ 20.3 µM); MIC (Candida albicans [20]): 12.5 µg/mL (≈ 25.4 µM); diameter of the inhibition zone (DIZ) (Klebsiella pneumoniae [21]): 11 mm; MIC (Pseudomonas aeruginosa [22]): 25 µg/mL (≈ 50.8 µM); diameter of the inhibition zone (DIZ) (Talaromyces marneffei [23]): 16 mm; MIC (Aspergillus fumigatus [24]): 25 µg/mL (≈ 50.8 µM); diameter of the inhibition zone (DIZ) (Aspergillus flavus [25]): 16 mm
Cn1cc(CCC(=O)NCCCc2c[nH]c3ccc(Cl)cc23)c2cc(Cl)ccc21 | 12.5 µg/mL (≈ 29.2 µM) | 6.25 µg/mL (≈ 14.6 µM) | <10 mm | <90% | 10 µg/mL (≈ 23.3 µM) | 16 mm | 16 mm | 25 µg/mL (≈ 58.4 µM) | 11 mm | 25 µg/mL (≈ 58.4 µM) | 6.25 µg/mL (≈ 14.6 µM) | 2.5 µg/mL (≈ 5.84 µM) | 6.25 µg/mL (≈ 14.6 µM) | 10 µg/mL (≈ 23.3 µM) | 11 mm | 12.5 µg/mL (≈ 29.2 µM) | 16 mm | 2.5 µg/mL (≈ 5.84 µM) | > 100 µg/mL | 16 mm | MIC (Candida albicans [20]): 6.25 µg/mL (≈ 14.6 µM); diameter of the inhibition zone (DIZ) (Klebsiella pneumoniae [21]): 16 mm; MIC (Pseudomonas aeruginosa [22]): 6.25 µg/mL (≈ 14.6 µM); diameter of the inhibition zone (DIZ) (Talaromyces marneffei [23]): <10 mm; MIC (Aspergillus fumigatus [24]): 25 µg/mL (≈ 58.4 µM); diameter of the inhibition zone (DIZ) (Aspergillus flavus [25]): <10 mm
Cn1cc(CCCNC(=O)CCc2c[nH]c3ccc(Cl)cc23)c2cc(OC(F)(F)F)ccc21 | 6.25 µg/mL (≈ 13.1 µM) | 6.25 µg/mL (≈ 13.1 µM) | <10 mm | 95% | 1 µg/mL (≈ 2.09 µM) | 16 mm | 16 mm | 25 µg/mL (≈ 52.3 µM) | 16 mm | 12.5 µg/mL (≈ 26.2 µM) | 6.25 µg/mL (≈ 13.1 µM) | 0.625 µg/mL (≈ 1.31 µM) | 6.25 µg/mL (≈ 13.1 µM) | 10 µg/mL (≈ 20.9 µM) | <10 mm | 25 µg/mL (≈ 52.3 µM) | <10 mm | 10 µg/mL (≈ 20.9 µM) | 10 µg/mL (≈ 20.9 µM) | 16 mm | MIC [26]: 10 µg/mL (≈ 20.9 µM); MIC (Candida albicans [20]): 25 µg/mL (≈ 52.3 µM); diameter of the inhibition zone (DIZ) (Klebsiella pneumoniae [21]): 16 mm; MIC (Pseudomonas aeruginosa [22]): 6.25 µg/mL (≈ 13.1 µM); diameter of the inhibition zone (DIZ) (Talaromyces marneffei [23]): 11 mm; MIC (Aspergillus fumigatus [24]): 25 µg/mL (≈ 52.3 µM); diameter of the inhibition zone (DIZ) (Aspergillus flavus [25]): <10 mm
Cn1cc(CNC(=O)CCc2c[nH]c3ccc(Cl)cc23)c2cc(Cl)ccc21 | 6.25 µg/mL (≈ 15.6 µM) | 12.5 µg/mL (≈ 31.2 µM) | 16 mm | 90% | > 100 µg/mL | 11 mm | 11 mm | 6.25 µg/mL (≈ 15.6 µM) | 16 mm | 6.25 µg/mL (≈ 15.6 µM) | 12.5 µg/mL (≈ 31.2 µM) | 1.25 µg/mL (≈ 3.12 µM) | 12.5 µg/mL (≈ 31.2 µM) | 10 µg/mL (≈ 25 µM) | 16 mm | 6.25 µg/mL (≈ 15.6 µM) | 16 mm |  | 10 µg/mL (≈ 25 µM) | <10 mm | MIC [26]: 10 µg/mL (≈ 25 µM); MIC (Candida albicans [20]): 6.25 µg/mL (≈ 15.6 µM); diameter of the inhibition zone (DIZ) (Klebsiella pneumoniae [21]): 11 mm; MIC (Pseudomonas aeruginosa [22]): 25 µg/mL (≈ 62.5 µM); diameter of the inhibition zone (DIZ) (Talaromyces marneffei [23]): 16 mm; MIC (Aspergillus fumigatus [24]): 6.25 µg/mL (≈ 15.6 µM); diameter of the inhibition zone (DIZ) (Aspergillus flavus [25]): 16 mm
NNC(=O)c1ccncc1 [ISONIAZID] |  |  |  | 95% | 0.7 µg/mL (≈ 5.1 µM) |  |  |  |  |  |  | 0.7 µg/mL (≈ 5.1 µM) |  | 50 µg/mL (≈ 365 µM) |  |  |  | 50 µg/mL (≈ 365 µM) | 12.5 µg/mL (≈ 91.1 µM) |  | MIC [26]: 12.5 µg/mL (≈ 91.1 µM)
CO[C@H]1/C=C/O[C@@]2(C)Oc3c(C)c(O)c4c(O)c(c(/C=N/N5CCN(C)CC5)c(O)c4c3C2=O)NC(=O)/C(C)=C\C=C\[C@H](C)[C@H](O)[C@@H](C)[C@@H](O)[C@@H](C)[C@H](OC(C)=O)[C@@H]1C [RIFAMPIN] |  |  |  | 95% | 0.5 µg/mL (≈ 0.608 µM) |  |  |  |  |  |  | 0.5 µg/mL (≈ 0.608 µM) |  | 1.5 µg/mL (≈ 1.82 µM) |  |  |  | 1.5 µg/mL (≈ 1.82 µM) | 1.5 µg/mL (≈ 1.82 µM) |  | MIC [26]: 1.5 µg/mL (≈ 1.82 µM)
